Measurements from patent US6066635A, “Avrainvillamide, a cytotoxic marine natural product, and derivatives thereof” (University of California, San Diego, priority 1999, dated 2000).
In brackets after ≈: the same amount, converted by molar mass.

Key:
Assay type in all cases: cell-based
[1] = system: tumor cell lines in the NCI 60 cell panel; assay: cytotoxic effect in the NCI 60 cell panel
From the text: (§1) Thus, the invention provides a method of treating a cancer patient by administering to the patient a compound of the invention in an amount sufficient to reduce or inhibit proliferation of cancer cells in the patient.

[2] = system: breast cancer cells βT-549; assay: in vitro cytotoxicity at the National Cancer Institute (NCI 60 cell panel), breast cancer βT-549; settings: inhibition of cell proliferation by 50%
From the text: as §1

[3] = system: breast cancer cells T-47D; assay: in vitro cytotoxicity at the National Cancer Institute (NCI 60 cell panel), breast cancer T-47D; settings: Homo sapiens, T47D; breast cancer T-47D (printed T-470); inhibition of cell proliferation by 50%
From the text: as §1

human colon HCT116 cells = assay: HCT-116 cytotoxicity assay; settings: human colon HCT-116 cells; concentration required to inhibit cell proliferation by 50% vs untreated cells
From the text: as §1

melanoma MALME-3M cells = assay: in vitro cytotoxicity at the National Cancer Institute (NCI 60 cell panel), melanoma; settings: Homo sapiens, inhibition of cell proliferation by 50%
From the text: as §1

Compound: CC1(C)C=Cc2c(ccc3c2[N+]([O-])=C2C3=CC34NC(=O)C5(CCCN5C3=O)CC4C2(C)C)O1 (stereo not drawn) [Avrainvillamide]
- selective in vitro cytotoxicity towards melanoma and breast cancers ([1]; MALME-3M, βT-549 and T-470): significant selective in vitro cytotoxicity
- cytotoxic effect against a variety of tumor cell lines ([1]; NCI 60 cell panel): dose dependent cytotoxic effect
- IC50 [2]: 0.034 µM
- IC50 [3]: 0.072 µM
- IC50 (human colon HCT116 cells): 2 µg/mL (≈ 4.49 µM)
- IC50 (melanoma MALME-3M cells): 0.053 µM
